Data as given in US10596094B2, “Compositions and methods for reducing skin pigmentation” (Yale University, priority 2013, dated 2020).

Columns and labels:
[1] = tested on: human melanocyte-keratinocyte co-cultures; experiment: EBL/SNA lectin staining of melanocyte-keratinocyte co-cultures; type: cell-based; conditions: L-cytidine 25 micromolar, 72 h, vs untreated (FIG. 5)
Method: Primary neonatal normal human keratinocytes (NHKs) (Invitrogen, Life Technologies, Grand Island, N.Y.) were seeded at a density of 5×10^5 cells/well into 4-well collagen coated chamber slides (Fisher Scientific, Waltham, Mass.). Cells were maintained in 1 ml of serum-free keratinocyte growth medium (KGM) (Keratinocyte-SFM, Invitrogen) and incubated for 48 h in 5% CO2 incubator. The complete KGM was prepared by adding KGM Singlequots (Lonza). Darkly pigmented human neonatal epidermal melanocytes (HEM-DP) (Invitrogen) were seeded over keratinocytes at 2.5×10^5 cells/well and incubated for 24 h at 37° C. The KGM was replaced with 1 ml of melanocyte growth medium (MGM) (Invitrogen), and the co-cultures were incubated for another 48 hours. The co-cultures were treated with the inhibitors at indicated concentrations in a final volume of 20 microliter/well in triplicate for 72 h. The cells were gently washed with 1× phosphate buffered saline (PBS) and fixed in 4% Paraformaldehyde (PFA) for 20 minutes at room temperature. […] The slides were air dried and mounted on cover slips and the images were captured in tiff format using fluorescence microscope (Nikon) and analyzed.

[2] = tested on: melanocyte-keratinocyte co-cultures; experiment: Fontana-Masson silver stain for melanin in melanocyte-keratinocyte co-cultures; type: cell-based, human; conditions: 50 micromolar, 72 h (FIG. 7)
Method: Primary neonatal normal human keratinocytes (NHKs) (Invitrogen, Life Technologies, Grand Island, N.Y.) were seeded at a density of 5×10^5 cells/well into 4-well collagen coated chamber slides (Fisher Scientific, Waltham, Mass.). Cells were maintained in 1 ml of serum-free keratinocyte growth medium (KGM) (Keratinocyte-SFM, Invitrogen) and incubated for 48 h in 5% CO2 incubator. The complete KGM was prepared by adding KGM Singlequots (Lonza). Darkly pigmented human neonatal epidermal melanocytes (HEM-DP) (Invitrogen) were seeded over keratinocytes at 2.5×10^5 cells/well and incubated for 24 h at 37° C. The KGM was replaced with 1 ml of melanocyte growth medium (MGM) (Invitrogen), and the co-cultures were incubated for another 48 hours. The co-cultures were treated with the inhibitors at indicated concentrations in a final volume of 20 microliter/well in triplicate for 72 h. The cells were gently washed with 1× phosphate buffered saline (PBS) and fixed in 4% Paraformaldehyde (PFA) for 20 minutes at room temperature.
Silver staining for melanin was performed according to the instructions provided with the Fontana-Masson staining kit (American MasterTech, Lodi, Calif.). Cells grown in collagen-coated chamber slides were fixed in 4% PFA and rinsed with water for 5 minutes to remove traces of PBS. Slides were then placed in ammonical silver solution followed by incubation in solutions of 0.1% gold chloride, 5% sodium thiosulfate, rinsed in running tap water to remove the staining solution, and dehydrated through 3 changes of fresh absolute alcohol. Cleared slides were rinsed through 3 changes of fresh xylene and coverslips were applied with mounting medium.

[3] = tested on: human melanocyte-keratinocyte co-cultures; experiment: Melanin assay (solubilized melanin, spectrophotometry) in melanocyte-keratinocyte co-cultures; type: cell-based; conditions: for Minimal concentration for >80% inhibition of melanin content: single agents, 72 h, data from FIG. 8A
Method: Cells were plated on 24-well plates at 2×10^5 cells/well and treated with various inhibitors in triplicate. Media were replaced with fresh inhibitor-containing media every 24 h. After 72 h, cells were lysed with cell lysis buffer (Invitrogen) containing protease inhibitor cocktail and PMSF (phenylmethyl sulfonyl fluoride) and incubated for 20 minutes on ice. […] From the same samples, the supernatants were saved for measurement of dopa oxidase activity and the pellets were evaluated for melanin content.
Melanin was extracted following a previously described procedure (Ni-Komatsu, et al., 2005, Pigment Cell Res 18(6),447-453). […] The melaninextracts (100 μl) were transferred to a 96-well plate and total melanin content quantitated with a M5 Spectramax plate reader (490 nm).
Dose response curves were assessed for Bliss Additivity and synergism as described (Fitzgerald et al., 2006, Nat Chem Biol 2:458-466; Ritz, C. & Streibig, J. C. (2005) Bioassay Analysis using R. J. Statist. Software, Vol 12, Issue 5). For comparisons of melanin content and tyrosinase/dopa oxidase activity in treated vs. untreated cultures, P-values were determined by the Welch Two Sample t-test.

EBL/SNA = EBL/SNA (Sambucus nigra, UniProt Q41358); conditions: Shibuya et al, 1987; Kaku et al, 2007; cited from earlier work
EBL/SNA, sequence (Q41358 309-570 limits assumed): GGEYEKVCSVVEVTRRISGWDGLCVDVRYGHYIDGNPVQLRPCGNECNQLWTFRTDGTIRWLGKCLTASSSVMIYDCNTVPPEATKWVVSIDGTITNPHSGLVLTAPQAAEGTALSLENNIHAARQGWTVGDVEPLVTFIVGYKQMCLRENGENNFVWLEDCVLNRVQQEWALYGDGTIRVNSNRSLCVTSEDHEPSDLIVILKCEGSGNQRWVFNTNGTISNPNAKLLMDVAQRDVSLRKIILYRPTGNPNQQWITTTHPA
EBL/SNA, sequence (Q41358 29-289 partner limits assumed): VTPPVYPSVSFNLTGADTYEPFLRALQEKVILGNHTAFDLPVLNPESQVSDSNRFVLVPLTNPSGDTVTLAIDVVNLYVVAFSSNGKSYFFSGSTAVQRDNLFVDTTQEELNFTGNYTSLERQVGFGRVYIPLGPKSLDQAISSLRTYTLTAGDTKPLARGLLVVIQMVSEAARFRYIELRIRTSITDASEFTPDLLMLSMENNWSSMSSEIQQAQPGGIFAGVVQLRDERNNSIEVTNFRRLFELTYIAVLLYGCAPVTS

| Compound | EBL staining [1] | melanin content (Fontana-Masson silver staining) [2] | melanin content compared to untreated cultures ([3]; 50 micromolar, 72 h (FIG. 6)) | Minimal concentration for >80% inhibition of melanin content [3] [µM] | inhibition of EBL-mediated precipitation of glycophorin (EBL/SNA) |
| --- | --- | --- | --- | --- | --- |
| Nc1ccn([C@@H]2O[C@H](CO)[C@@H](O)[C@H]2O)c(=O)n1 [cytidine] | markedly reduced | reduced melanin content | – | – | – |
| Neu5Ac(α2,3)Gal(β1-4)Glc [3′-SL] | – | reduced melanin content | strongest reduction of the three | 30 | poor inhibitor |
| Neu5Ac(α2,6)Gal(β1-4)Glc [6′-SL] | – | reduced melanin content | – | 30 | strong inhibitor |
